Experimental data published in patent US8431577B2, “Crystalline form of eszopiclone, composition, preparation and uses thereof” (Tianjin Tasly Group Co., Ltd., priority 2008, dated 2013).
Read-outs that look alike come from different tables or passages of the source.

Assays:
[1] = test system: Male Long-Evans rats; assay: Test of spontaneous activity; type: in vivo, rat; details: 10 mg/Kg body weight
Procedure: (§1) Male Long-Evans rats (weighing 250˜275 g) were adopted, divided into 3 groups, and fed in a 12-hour light-dark cycle. After one week of feeding, the experiment was carried out.
Horizontal activity of rats had been observed under an open circumstance to measure a total spontaneous activity. Respectively, all animals were placed into 8 black light-proof rooms, and their spontaneous activities were monitored by an infrared sensor mounted on the wall at equal intervals to record once every 10 minutes for 120 minutes.
The crystalline form of S-zopiclone was administrated to the animals at a dose of 10 mg/Kg body weight. 30˜60 minutes after administration, the inhibitory effect on the locomotor ability reached a peak, and disappeared after 2 hours.

[2] = test system: Male Long-Evans rats; assay: Maze test; type: in vivo, rat
Procedure: as §1

[3] = for Content (%) / Related substances (%) Levozopiclone / Related substances (%) Other impurities: Strong light exposure (4500±500 Lx)
Description: The specimens were sampled on the 5th and 10th day respectively to measure their stability in accordance with the key stability-relevant items.

[4] = Long-term reserved-sample stability test; type: physicochemical; details: room temperature
Description: The crystalline form of S-zopiclone was packaged in packages simulated the commercial ones, and placed at room temperature. The specimens were sampled on the 3rd, 6th, 9th, 12th, 18th, 24th, and 36th month respectively to measure their stability in accordance with the key stability-relevant items.

[5] = Crystal transformation under the stability tests (X-ray diffraction); type: physicochemical; details: under all stability tests (60° C., RH 92.5%, strong light, accelerated, long-term)
[6] = Pharmacokinetic study of single oral administration in healthy volunteers; type: in vivo, human
Procedure: Evaluation of pharmacokinetics: according to the results of phase I clinical tolerance trial and the pre-designed therapeutic dose of phase II clinical trial, a high dose of 11. 25 mg/kg BW (body weight) can be tolerated by all volunteers in tolerance test, three different dose groups had been set as follows: low dose group, moderate dose group and high dose group were 3, 6 and 12 mg/kg BW, respectively. Three-way crossover Latin square design was used. All subjects were randomly divided into 3 test groups, and the tested drug at different doses was administrated to the subjects when performing each test. Thus, after 3 tests, each subject had been administrated with the testing drug at high, moderate and low dose by following the Latin square design procedure. The interval between two tests was 2 weeks.
(§2) After a single oral administration of the tested drug, 6 ml anticoagulant heparin venous blood samples were collected at 0th (immediately before administration), 15th minute, 30th minute, 45th minute, 60th minute, 1.5th hour, 2nd hour, 3rd hour, 4th hour, 6th hour, 8th hour, 12th hour, 16th hour and 24th hour respectively to determine the concentration of S-zopiclone. By HPLC, the plasma drug concentration of each subject had been determined at different time-points to give a concentration-time curve. The main pharmacokinetic parameters of the subjects had been calculated, including AUC, Cmax, Tmax, AUC0˜α, AUC0-t and t1/2, etc.
(§3) The crystalline form of S-zopiclone was prepared into coated tablets (3 mg S-zopiclone/tablet) in accordance with Example 1 and Example 9, single orally administrated.
(§4) Pharmacokinetic indices: the plasma drug concentration had been determined immediately before administration and at different time-points after administration of the drug to give a concentration-time curve. The main pharmacokinetic parameters had been calculated, including Cmax, Tmax, AUC0˜α, AUC0-t and t1/2, etc.
(§5) Pharmacokinetic: 3P97 statistical analysis software had been applied to calculate the main pharmacokinetic parameters.

[7] = Pharmacokinetic study pre and post eating in healthy volunteers; type: in vivo, human; details: single oral
Procedure: In addition, the effect of eating food on in vivo metabolism of the drug had been evaluated. 8 subjects were randomly divided into 2 groups. In 2 tests, the subjects of each group received the drug at the same dose (6 mg) in the cases of fasting and 5 minutes after taking standard diet. The interval between two tests was 2 weeks.
as §2, §3, §4, §5

[8] = Safety after single oral administration in healthy volunteers; type: in vivo, human
Procedure: Safety indices: a series of indices were measured when conducting screening and 24 hours after administration, including vital signs, physical examination, ECG and laboratory test. During the test, adverse event was recorded on time.
Safety: meaningful clinical safety indices are tabulated according to the type and the frequency thereof.
Bitter taste in mouth was reported as severe adverse reaction by a majority of subjects (25%˜40%), and another adverse reaction was dizziness and headache. […] Two subjects in the group of the dose of 12 mg/kg BW experienced the state of delirium, including talkativeness, hyperactivity and unconsciousness. […] Within 12 hours after administration, all adverse reactions disappeared without special treatment.

[9] = 3 mg single oral administration
[10] = 6 mg single oral administration
[11] = 12 mg single oral administration
[12] = 6 mg (eating), 5 minutes after standard diet

Compound: CN1CCN(C(=O)O[C@H]2c3nccnc3C(=O)N2c2ccc(Cl)cn2)CC1 [crystalline form of S-zopiclone, (+)-(S)-(4-methylpiperazine-1-carboxylate)(6-(5-chloropyridinyl-2-yl)-7-carbonyl-6,7-dihydro-5-H-pyrrolo[3,4-b]pyrazin-5-yl ester)]
- time after which inhibitory effect on the locomotor ability disappeared [1]: 2 h
- residence time in the open arm ([2]; 5 mg/Kg body weight): significantly increase
- effect on total entries, open arm entries and close arm entries ([2]; 10 mg/Kg body weight): significant effect
- residence time in the open arm ([2]; 10 mg/Kg body weight): significantly increase
- stability (character, melting point, related substances versus 0th day) ([3]; 10 days of strong light exposure (4500±500 Lx)): remained stable
- Content (%) ([3]; day 0): 100.06%
- Related substances (%) Levozopiclone ([3]; day 0): 0.06%
- Related substances (%) Other impurities ([3]; day 0): 0.09%
- Content (%) ([3]; day 5): 99.77%
- Related substances (%) Levozopiclone ([3]; day 5): 0.08%
- Related substances (%) Other impurities ([3]; day 5): 0.10%
- Content (%) ([3]; day 10): 100.02%
- Related substances (%) Levozopiclone ([3]; day 10): 0.07%
- Related substances (%) Other impurities ([3]; day 10): 0.11%
- stability (character, melting point, related substances versus 0th day) ([4]; long-term reserved-sample test, up to 36 months): remained stable
- Content (%) ([4]; month 0): 100.06%
- Related substances (%) Levozopiclone ([4]; month 0): 0.06%
- Related substances (%) Other impurities ([4]; month 0): 0.09%
- Content (%) ([4]; month 3): 100.3%
- Related substances (%) Levozopiclone ([4]; month 3): 0.06%
- Related substances (%) Other impurities ([4]; month 3): 0.11%
- Content (%) ([4]; month 6): 100.21%
- Related substances (%) Levozopiclone ([4]; month 6): 0.06%
- Related substances (%) Other impurities ([4]; month 6): 0.14%
- Content (%) ([4]; month 9): 100.16%
- Related substances (%) Levozopiclone ([4]; month 9): 0.04%
- Related substances (%) Other impurities ([4]; month 9): 0.14%
- Content (%) ([4]; month 12): 100.08%
- Related substances (%) Levozopiclone ([4]; month 12): 0.06%
- Related substances (%) Other impurities ([4]; month 12): 0.14%
- Content (%) ([4]; month 18): 100.12%
- Related substances (%) Levozopiclone ([4]; month 18): 0.07%
- Related substances (%) Other impurities ([4]; month 18): 0.17%
- Content (%) ([4]; month 24): 99.80%
- Related substances (%) Levozopiclone ([4]; month 24): 0.07%
- Related substances (%) Other impurities ([4]; month 24): 0.18%
- Content (%) ([4]; month 36): 100.06%
- Related substances (%) Levozopiclone ([4]; month 36): 0.07%
- Related substances (%) Other impurities ([4]; month 36): 0.20%
- phenomenon of crystal transformation [5]: had not been observed
- AUC0-∞ [6, 9]: 259.66 ± 92.58 µg/h/L
- Cmax [6, 9]: 33.96 ± 8.63 ng/mL
- Tmax [6, 9]: 1.50 ± 0.66 h
- plasma clearance [6, 9]: 14.10 ± 4.5 L/h
- t1/2 [6, 9]: 6.98 ± 0.99 h
- AUC0-∞ [6, 10]: 404.21 ± 73.32 µg/h/L
- Cmax [6, 10]: 60.94 ± 11.44 ng/mL
- Tmax [6, 10]: 1.28 ± 0.43 h
- plasma clearance [6, 10]: 15.80 ± 3.0 L/h
- t1/2 [6, 10]: 8.20 ± 6.14 h
- AUC0-∞ [6, 11]: 1291.26 ± 426.68 µg/h/L
- Cmax [6, 11]: 182.72 ± 67.44 ng/mL
- Tmax [6, 11]: 1.58 ± 0.40 h
- plasma clearance [6, 11]: 10.90 ± 5.00 L/h
- t1/2 [6, 11]: 8.06 ± 2.82 h
- AUC0-∞ [7, 12]: 284.00 ± 88.36 µg/h/L
- Cmax [7, 12]: 62.60 ± 18.95 ng/mL
- Tmax [7, 12]: 1.75 ± 0.89 h
- plasma clearance [7, 12]: 21.4 ± 7.4 L/h
- t1/2 [7, 12]: 6.75 ± 1.49 h
- AUC0-∞ ([7]; 6 mg (fasting)): 335.73 ± 145.57 µg/h/L
- Cmax ([7]; 6 mg (fasting)): 60.69 ± 11.43 ng/mL
- Tmax ([7]; 6 mg (fasting)): 1.31 ± 0.44 h
- plasma clearance ([7]; 6 mg (fasting)): 16.00 ± 3.3 L/h
- t1/2 ([7]; 6 mg (fasting)): 7.17 ± 2.69 h
- subjects experiencing the state of delirium (talkativeness, hyperactivity, unconsciousness) ([8]; 12 mg dose group): Two subjects
- types and frequencies of adverse reactions versus low and moderate dose groups ([8]; high dose group (12 mg)): more types and higher frequencies of adverse reactions
- time after administration within which all adverse reactions disappeared ([8]; without special treatment): ≤ 12 h
